# Patent publication US11465987B2, “Compounds for treatment of cancer” (ONCTERNAL THERAPEUTICS, INC., priority 2012, dated 2022)
# Where two headings read alike, the source gives them in different places.
# Experiments:
# [1] = test system: PC-3 human prostate cancer cell line; assay: cells; details: Homo sapiens
# Source text: (§1) Cells were stained with SRB solution.
# [2] = test system: NCI/ADR-RES (P-gp over-expressing resistant line of OVCAR-8); assay: Cytotoxicity (SRB) assay, NCI/ADR-RES; format: cell-based, human
# [3] = test system: melanoma and prostate cancer cell lines; assay: Antiproliferative activity summarised over the cell line panel (range or average); format: cell-based; details: read-out: IC50 (range over tested cell lines)
# Bovine brain tubulin = assay: In vitro tubulin polymerization assay (bovine brain tubulin); format: biochemical; details: 10 μM, absorbance 340 nm over 15 min
# Protocol: The spectrophotometer was maintained at 37° C. for tubulin polymerization.
# [4] = test system: A375 human melanoma xenograft; assay: In vivo A375 human melanoma xenograft
# [5] = ICR mice, 4 consecutive days of intraperitoneal dosing
# [6] = Pharmacokinetic study in ICR mice; details: mice, 15 mg/kg i.v.
# PC-3 xenograft = assay: In vivo PC-3 prostate tumor xenograft; details: for tumor volume at day 21: control 680 mm^3
# MES-SA/DX5 cells = assay: Growth inhibition (SRB) assay, MES-SA/Dx5; format: cell-based; details: ratio of IC50 MES-SA/DX5 to MES-SA
# [7] = test system: OVCAR-8 human ovarian cell line; assay: Cytotoxicity (SRB) assay, OVCAR-8; format: cell-based; details: Table 14B, parental cell line, read-out: IC50 ± SEM, OVCAR-8
# WM-164 melanoma cells = assay: Microtubule imaging (immunofluorescence); format: cell-based, human; details: WM-164 cells, 18 h
# Source text: Primary antibody for tubulin and fluorescence-labeled secondary antibody were subsequently added to the cells. Cell nuclei were stained by DAPI. Whole Cell Stain Green was also applied to all cells. All images were acquired with an Olympus IX71 inverted fluorescence microscope (Olympus Corp., Tokyo, Japan) with overlays from separate images of tubulin (red), nuclei (blue), and whole cells (green).
# [8] = test system: A375MA2 melanoma cell line; assay: Cytotoxicity assay, A375MA2; format: cell-based; details: Table 14B, n = 3; read-out: IC50 ± SEM, A375MA2
# HEK293-pcDNA3.1 cells = assay: Cytotoxicity assay, HEK293-pcDNA3.1 (parental line of the MRP/BCRP sublines); format: cell-based; details: Table 14B; parental cell line; read-out: IC50 ± SEM, HEK293-pcDNA3.1
# [9] = test system: MDA-MB-435/LCCMDR1 multidrug-resistant melanoma cells; assay: Cytotoxicity (SRB) assay, MDA-MB-435/LCCMDR1; format: cell-based; details: for P-gp substrate / multidrug resistance in words: MDR melanoma line vs sensitive parent line; for IC50: Homo sapiens
# B16-F1 melanoma tumors = assay: In vivo B16-F1 melanoma allograft; parameters: species or system mouse
# Protocol: Female C57/BL mice, age 4-6 weeks, were purchased from Harlan Laboratories (Harlan Laboratories Inc., Indianapolis, Ind.). The animal housing met the Association for Assessment and Accreditation and Laboratory Animal Care specifications. All of the procedures were conducted in accordance with guidelines of our Institutional Animal Care and Use Committee.
# Tumor volume was expressed in cubic millimeters.
# [10] = test system: A375 human melanoma cell line; assay: Cytotoxicity (SRB) assay, A375; format: cell-based; details: Homo sapiens, A-375, Table 14D; read-out: IC50 ± SEM, A375 (converted)
# [11] = test system: DU 145 human prostate cancer cell line; assay: Cytotoxicity (SRB) assay, DU 145; format: cell-based; details: Homo sapiens
# Source text: as §1
# [12] = test system: PPC-1 human prostate cancer cell line; assay: Cytotoxicity (SRB) assay, PPC-1; format: cell-based; details: Homo sapiens
# Source text: as §1
# [13] = test system: MDA-MB-435 parental nonresistant melanoma cells; assay: Cytotoxicity (SRB) assay, MDA-MB-435; format: cell-based; details: Homo sapiens, Table 14D, read-out: IC50 ± SEM, MDA-MB-435 (converted)
# DU-145/TXR cells = assay: Growth inhibition, DU-145/TXR; format: cell-based; details: Homo sapiens
# [14] = test system: LNCaP human prostate cancer cell line; assay: Cytotoxicity (SRB) assay, LNCaP; format: cell-based; details: Homo sapiens, LNCaP
# Source text: as §1
# [15] = test system: PC-3_TxR paclitaxel-resistant prostate cancer cells (P-gp over-expressing); assay: cells; details: Homo sapiens, PC3-TxR
# [16] = test system: confluent HUVEC monolayers; assay: Endothelial monolayer permeability assay; details: FITC-dextran leakage, 1, 2, 4 h
# PC-3_TxR xenograft = assay: In vivo PC-3/TxR xenograft; details: for tumor growth inhibition (TGI): PC-3/TxR tumors
# [17] = read-out: IC50 PC-3, SRB assay, prostate cancer PC-3
# [18] = Melanoma (A375) xenograft, 15 mg/kg i.p.
# [19] = DU-145, Table 12, read-out: IC50 ± SEM, Du 145
# [20] = read-out: IC50 ± SEM, PC-3, Table 12
# [21] = PPC-1, Table 12, read-out: IC50 ± SEM, PPC-1 (converted)
# [22] = Table 14D, read-out: IC50 ± SEM, MDA-MB-435/LCC-6MDR1 (converted)
# [23] = Table 12, read-out: IC50 ± SEM, LNCaP (converted)
# [24] = DU-145, Table 13A, read-out: inhibitory effects, DU145
# [25] = read-out: inhibitory effects, PC3, Table 13A
# [26] = Table 13A, read-out: inhibitory effects, LNCaP
# [27] = PPC-1, Table 13A, read-out: inhibitory effects, PPC1
# [28] = DU-145, Table 13A, read-out: inhibitory effects, DU-145/TXR
# [29] = read-out: inhibitory effects, PC3/TXR
smiles,measurement,setting,value
"COc1cc(C(=NC#N)c2csc(-c3ccccc3)n2)cc(OC)c1OC [2j, N-((2-phenylthiazol-4-yl)(3,4,5-trimethoxyphenyl)methylene)cyanamide]",IC50,[1]; [17],27 ± 1 nM
same,Resistance factor,[2]; NCI/ADR-RES relative to OVCAR-8,0.4
same,IC50,[3],20 to 60 nM
COc1cc(C(=O)c2csc(-c3ccc(F)cc3)n2)cc(OC)c1OC [2k],inhibition of tubulin polymerization,Bovine brain tubulin,90%
same,% T/C,[4]; [18],28%
same,T-C,[4]; [18],11 days
same,dose not causing greater than 10% loss of body weight,[5],≤ 15 mg/kg
same,AUC,[6],2200 ng·h/mL
same,% T/C,"PC-3 xenograft; PC-3, 5 mg/kg i.p.",21%
same,tumor volume at day 21,"PC-3 xenograft; PC-3, 5 mg/kg i.p. daily",269 mm^3
same,% T/C,"PC-3 xenograft; PC-3, 15 mg/kg i.p.",24%
same,tumor volume at day 21,"PC-3 xenograft; PC-3, 15 mg/kg i.p. daily",292 mm^3
same,mice that lost more than 15% body weight,"PC-3 xenograft; PC-3 xenograft, 15 mg/kg i.p.",2 out of 7
"Fc1ccc(-c2nccc3ccc(-c4ccc5[nH]ccc5c4)cc23)cc1 [6c, 1-(4-Fluoro-phenyl)-7-(H-indol-5-yl)-isoquinoline]",Resistance factor,MES-SA/DX5 cells,1.7
"COc1ccc(-c2nc(C(=O)c3ccc(F)cc3)c[nH]2)cc1 [12cb, (4-fluorophenyl)(2-(4-methoxyphenyl)-1H-imidazol-4-yl)methanone]",IC50,[7],25 ± 2 nM
same,effect on microtubules in words,WM-164 melanoma cells,microtubule fragmentation
same,IC50,[8],44 ± 5 nM
same,IC50,HEK293-pcDNA3.1 cells,12 ± 2 nM
"O=C(c1ccc(F)cc1)c1c[nH]c(-c2ccc(Cl)cc2)n1 [12fb, (2-(4-chlorophenyl)-1H-imidazol-4-yl)(4-fluorophenyl)methanone]",IC50,[7],45 ± 2 nM
same,IC50,"[2]; Homo sapiens, NCI/ADR-RES, Table 14B, MDR1 overexpressed, read-out: IC50 ± SEM, NCI/ADR-RES",20 ± 6 nM
same,P-gp substrate / multidrug resistance in words,[9],not substrates for P-gp
same,tumor growth inhibition (TGI value),"B16-F1 melanoma tumors; C57BL/6 mice, 15 mg/kg, 13 days",32%
same,tumor growth inhibition (TGI value),"B16-F1 melanoma tumors; C57BL/6 mice, 45 mg/kg, 13 days",82%
same,well tolerated dose,"[4]; SHO mice, 31 days",25 mg/kg
same,IC50,[8],55 ± 4 nM
same,IC50,HEK293-pcDNA3.1 cells,54 nM
"CCc1ccc(-c2nc(C(=O)c3cc(OC)c(OC)c(OC)c3)c[nH]2)cc1 [12q, (2-(4-ethylphenyl)-1H-imidazol-4-yl)(3,4,5-trimethoxyphenyl)methanone]",IC50,[10],1.4 nM
same,IC50,[11]; [19],25 nM
same,IC50,[1]; [20],13 nM
same,IC50,[12]; [21],15 nM
same,IC50,[13],107 ± 5 nM
same,IC50,[9]; [22],27 ± 3 nM
same,IC50,"DU-145/TXR cells; Table 12, in parentheses in the Du 145 column, read-out: IC50, DU-145/TXR",20 nM
"COc1cc(C(=O)c2c[nH]c(-c3ccc(C(C)C)cc3)n2)cc(OC)c1OC [12v, (2-(4-isopropylphenyl)-1H-imidazol-4-yl)(3,4,5-trimethoxyphenyl)methanone]",IC50,[11]; [19],482 nM
same,IC50,[1]; [20],136 nM
same,IC50,[14]; [23],171 nM
same,IC50,[12]; [21],173 nM
same,IC50,[13],312 nM
same,IC50,[9]; [22],250 nM
"COc1cc(C(=O)c2c[nH]c(-c3ccc(C(C)(C)C)cc3)n2)cc(OC)c1OC [12w, (2-(4-tert-butylphenyl)-1H-imidazol-4-yl)(3,4,5-trimethoxyphenyl)methanone]",IC50,[11]; [19],1700 nM
same,IC50,[1]; [20],436 nM
same,IC50,[14]; [23],423 nM
same,IC50,[12]; [21],294 nM
same,IC50,[13],3690 nM
same,IC50,[9]; [22],3070 nM
"COc1cc(C(=O)c2nc(-c3ccccc3)c[nH]2)cc(OC)c1OC [70a, (4-Phenyl-1H-imidazol-2-yl)(3,4,5-trimethoxyphenyl)methanone and (5-phenyl-1H-imidazol-2-yl)(3,4,5-trimethoxyphenyl)methanone]",IC50,[11]; [24],21.5 nM
same,IC50,[1]; [25],14 nM
same,IC50,[14]; [26],6 nM
same,IC50,[12]; [27],13 nM
same,IC50,[13],79 nM
same,IC50,[9]; [22],43 nM
same,IC50,DU-145/TXR cells; [28],22.9 nM
"COc1cc(C(=O)c2nc(-c3ccccc3)cn2C)cc(OC)c1OC [70m, (1-Methyl-4-phenyl-1H-imidazol-2-yl)(3,4,5-trimethoxyphenyl)methanone]",IC50,[11]; [24],26 nM
same,IC50,[1]; [25],16 nM
same,IC50,[12]; [27],13 nM
same,IC50,DU-145/TXR cells; [28],27 nM
same,IC50,[15]; [29],7.5 nM
"CCn1cc(-c2ccccc2)nc1C(=O)c1cc(OC)c(OC)c(OC)c1 [70n, (1-Ethyl-4-phenyl-1H-imidazol-2-yl)(3,4,5-trimethoxyphenyl)methanone]",IC50,[11]; [24],66 nM
same,IC50,[1]; [25],25 nM
same,IC50,[14]; [26],29 nM
same,IC50,DU-145/TXR cells; [28],66 nM
same,IC50,[15]; [29],20 nM
"COc1ccc(S(=O)(=O)Nc2cccnc2Nc2ccc(O)cc2)cc1 [ABT-751, reference compound]",IC50,"[9]; Table 14B, MDR1 overexpressed, read-out: IC50 ± SEM, MDA-MB-435/LCC6MDR1",577 ± 31 nM
same,P-gp substrate / multidrug resistance in words,[9],"not susceptible to MDR1, MRP, or BCRP"
same,effect on microtubules in words,WM-164 melanoma cells,microtubule fragmentation
same,IC50,HEK293-pcDNA3.1 cells,645 ± 153 nM
"COc1ccc(/C=C\c2cc(OC)c(OC)c(OC)c2)cc1O [CA4, Combretastatin A-4]",permeability of endothelial cell monolayer in words,[16],increased permeability
"CN(C)/N=N/c1[nH]cnc1C(N)=O [DTIC, 5-(3,3,-dimethyl-1-triazenyl)-imidazole-4-carboxamide, reference compound]",tumor volume reduction,"B16-F1 melanoma tumors; C57/BL mice, 60 mg/kg i.p. daily, 14 days",51%
same,tumor growth inhibition (TGI),"B16-F1 melanoma tumors; C57BL/6 mice, 60 mg/kg, 13 days",51%
"CC(=O)O[C@@]12CO[C@@H]1C[C@H](O)[C@@]1(C)C(=O)[C@H](O)C3=C(C)[C@@H](OC(=O)[C@H](O)[C@@H](NC(=O)OC(C)(C)C)c4ccccc4)C[C@@](O)([C@@H](OC(=O)c4ccccc4)[C@H]21)C3(C)C [docetaxel, reference compound]",IC50,"[1]; read-out: IC50, PC-3, Table 7",6.3 ± 0.4 nM
same,IC50,[1]; [17],1.2 ± 0.1 nM
same,IC50,[15]; read-out: IC50 PC-3/TxR,17.7 ± 0.7 nM
same,tumor growth inhibition (TGI),PC-3_TxR xenograft; i.v. 10 mg/kg on day 1 and 9,14%
same,tumor growth inhibition (TGI),PC-3_TxR xenograft; i.v. 20 mg/kg on day 1 and 9,56%
same,Tumor size End,"PC-3_TxR xenograft; PC-3/TxR xenograft, IV 10 mpk, day 1 and 9, day 19, […]",1774 ± 183 mm^2
